Reference: PubChem BioAssay AID2060492 (Molecular Pharmacology Branch, DTP, NCI, 2025)

Tested on: 695427-040-R-J1-PDC complex spheroids, viability percent T/C
Experiment: Anticancer human tumor 695427-040-R-J1-PDC patient-derived colon adenocarcinoma cell line growth inhibition [GQUAD]
Details: for IC50: curve of first compound; for viability, T/C: stronger effect = lower value
Description: DNA G-quadruplex Stabilizer Agents in Combinations in Complex Spheroids
A high-throughput screen of multi-cell type tumor spheroids was designed to identify active combinations of DNA G-quadruplex stabilizer agents and targeted small molecules. Complex spheroids include a stromal component modeled by human endothelial cells (HUVEC) and fibroblasts modeled by human mesenchymal stem cells (MSCs). The concentration ranges selected for each drug and investigational agent were based upon clinically achievable concentrations if the clinical Cmax of the agent was known.
Compounds. The drugs and investigational agents: pidnarulex (CX-5461; NSC782164), APTO-253 (NSC789042), BRACO-19 (NSC847499), peposertib (NSC802822), ceralasertib (NSC780249), elimusertib (NSC800525), camonsertib (NSC841442), AZD-1390 (NSC803789), olaparib (NSC753686), talazoparib (NSC767125), ART-558 (NSC835418), sotorasib (NSC818433), MRTX-1133 (NSC836407), SN-38 (NSC673596), topotecan (NSC609699), etoposide (NSC141540), doxorubicin (NSC123127), gemcitabine (NSC613327), 5-fluorouracil (NSC19893), paclitaxel (NSC125973), vemurafenib (NSC761431), panobinostat (NSC761190), R-306465 (JNJ-16241199; NSC773264), adavosertib (NSC754352), TP-3654 (NSC805149), carboplatin (NSC241240), KSQ-4279 (NSC840948), and staurosporine (NSC755774) were obtained from the National Cancer Institute (NCI) Developmental Therapeutics Program Chemical Repository (34). The FDA-approved anticancer drug set is available from the NCI Developmental Therapeutics Program. […] The stock solutions were prepared in dimethyl sulfoxide (DMSO, Sigma-Aldrich, St. Louis, MO, cat. D2650) at 800-fold the tested concentration and stored at -70 degrees C prior to their use. All drugs and investigational agents were tested over a range starting from a high concentration at or near the clinical Cmax and decreasing in half-log increments. If the clinical Cmax for an agent had not been determined, the highest concentration tested was 10 microM.
2.3 Cell Culture. All cells were maintained in an incubator at 37 degrees C and 5% CO2 with 95% humidity. The PDC lines were cultured according to standard operating procedures established by the NCI PDMR. All PDCs were thawed and cultured in Matrigel-coated flasks prepared with a working solution of 1X Ham's F-12 nutrient mix, without supplementation (Invitrogen, cat. 11765054), 100 U/mL penicillin-streptomycin (Invitrogen, cat. 15140122), and 2.5% Matrigel (Corning Inc., cat. 354248) for the first three passages. The 857933-349-R-J2-PDC line was cultured in 6C/Colon 1B media, which includes advanced DMEM/F-12 (Thermo Fisher Scientific, cat. 12634028), 10 mM HEPES (Thermo Fisher Scientific, cat. 15630080), 1X GlutaMAX supplement (Thermo Fisher Scientific, cat. 35050061), 0.1 mg/mL primocin (InvivoGen, cat. ant-pm-2), 10% defined fetal bovine serum, heat inactivated (HyClone Laboratories Inc., cat. SH30070.03HI), 50% L-WRN conditioned media (ATCC, cat. CRL-3276), 1.25 mM N-Acetyl-L-cysteine (Sigma-Aldrich, cat. A9165), 10 mM nicotinamide (Sigma-Aldrich, cat. N0636), 1X B-27 supplement (Thermo Fisher Scientific, cat. 17504044), 1X N-2 supplement (Thermo Fisher Scientific, cat. 17502048), 10 microM Y-27632 dihydrochloride (Tocris Bioscience, cat. 1254), and 50 ng/mL human EGF recombinant protein (Thermo Fisher Scientific, cat. PHG0311). The 485176-168-R4-J1-PDC line was cultured in Panc media, which includes all 6C/Colon 1B media components plus 100 ng/mL human FGF-10 (Thermo Fisher Scientific, cat. 100-26), 500 nM SB-431542 (Selleckchem, cat. S1067), and gastrin (Tocris, cat. 3006).
[…]

[1] = second compound 0.0316 µM, first compound 0.0316 µM
[2] = second compound 0.0316 µM, first compound 0.316 µM
[3] = second compound 0.1 µM, first compound 0.0316 µM
[4] = second compound 0.1 µM, first compound 0.316 µM
[5] = second compound 0.316 µM, first compound 0.0316 µM
[6] = second compound 0.316 µM, first compound 0.316 µM
[7] = second compound 1 µM, first compound 0.0316 µM
[8] = second compound 1 µM, first compound 0.316 µM
[9] = second compound 3.16 µM, first compound 0.0316 µM
[10] = second compound 3.16 µM, first compound 0.316 µM
[11] = second compound 10 µM, first compound 0.0316 µM
[12] = second compound 10 µM, first compound 0.316 µM
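Further: spheroids exposed to compounds for seven days before readout.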

## CC1COCCN1c1cc(C2(S(C)(=N)=O)CC2)nc(-c2ccnc3[nH]ccc23)n1 (centres undefined) + CN(C)c1ccc(Nc2c3ccc(NC(=O)CCN4CCCC4)cc3nc3cc(NC(=O)CCN4CCCC4)ccc23)cc1
Second compound 0.0316 µM
  IC50: > 10000 nM
Second compound 0.1 µM
  IC50: > 10000 nM
Second compound 0.316 µM
  IC50: > 10000 nM
Second compound 1 µM
  IC50: > 10000 nM
Second compound 3.16 µM
  IC50: > 10000 nM
Second compound 10 µM
  IC50: > 10000 nM
[1]
  viability, T/C: 104%
Second compound 0.0316 µM, first compound 0.1 µM
  viability, T/C: 96.5%
[2]
  viability, T/C: 106%
Second compound 0.0316 µM, first compound 1 µM
  viability, T/C: 97%
Second compound 0.0316 µM, first compound 3.16 µM
  viability, T/C: 95.5%
Second compound 0.0316 µM, first compound 10 µM
  viability, T/C: 69.4%
[3]
  viability, T/C: 109%
Second compound 0.1 µM, first compound 0.1 µM
  viability, T/C: 93.8%
[4]
  viability, T/C: 110%
Second compound 0.1 µM, first compound 1 µM
  viability, T/C: 86.1%
Second compound 0.1 µM, first compound 3.16 µM
  viability, T/C: 87%
Second compound 0.1 µM, first compound 10 µM
  viability, T/C: 74%
[5]
  viability, T/C: 103%
Second compound 0.316 µM, first compound 0.1 µM
  viability, T/C: 91.4%
[6]
  viability, T/C: 94.3%
Second compound 0.316 µM, first compound 1 µM
  viability, T/C: 83.7%
Second compound 0.316 µM, first compound 3.16 µM
  viability, T/C: 87.5%
Second compound 0.316 µM, first compound 10 µM
  viability, T/C: 69.9%
[7]
  viability, T/C: 93.3%
Second compound 1 µM, first compound 0.1 µM
  viability, T/C: 96.4%
[8]
  viability, T/C: 100%
Second compound 1 µM, first compound 1 µM
  viability, T/C: 93.1%
Second compound 1 µM, first compound 3.16 µM
  viability, T/C: 91.5%
Second compound 1 µM, first compound 10 µM
  viability, T/C: 68.5%
[9]
  viability, T/C: 95.8%
Second compound 3.16 µM, first compound 0.1 µM
  viability, T/C: 101%
[10]
  viability, T/C: 103%
Second compound 3.16 µM, first compound 1 µM
  viability, T/C: 90.8%
Second compound 3.16 µM, first compound 3.16 µM
  viability, T/C: 93.4%
Second compound 3.16 µM, first compound 10 µM
  viability, T/C: 69.6%
[11]
  viability, T/C: 86.7%
Second compound 10 µM, first compound 0.1 µM
  viability, T/C: 91.8%
[12]
  viability, T/C: 91.9%
Second compound 10 µM, first compound 1 µM
  viability, T/C: 88.1%
Second compound 10 µM, first compound 3.16 µM
  viability, T/C: 86%
Second compound 10 µM, first compound 10 µM
  viability, T/C: 69.8%

## CCc1c2c(nc3ccc(O)cc13)-c1cc3c(c(=O)n1C2)COC(=O)[C@]3(O)CC + CN(C)c1ccc(Nc2c3ccc(NC(=O)CCN4CCCC4)cc3nc3cc(NC(=O)CCN4CCCC4)ccc23)cc1
Second compound 0.0316 µM
  IC50: > 316 nM
Second compound 0.1 µM
  IC50: > 316 nM
Second compound 0.316 µM
  IC50: > 316 nM
Second compound 1 µM
  IC50: > 316 nM
Second compound 3.16 µM
  IC50: 247 nM
Second compound 10 µM
  IC50: 252 nM
Second compound 0.0316 µM, first compound 0.000999 µM
  viability, T/C: 104%
Second compound 0.0316 µM, first compound 0.00316 µM
  viability, T/C: 94.5%
Second compound 0.0316 µM, first compound 0.00999 µM
  viability, T/C: 93.3%
[1]
  viability, T/C: 74.7%
Second compound 0.0316 µM, first compound 0.0999 µM
  viability, T/C: 70.8%
[2]
  viability, T/C: 51.3%
Second compound 0.1 µM, first compound 0.000999 µM
  viability, T/C: 108%
Second compound 0.1 µM, first compound 0.00316 µM
  viability, T/C: 90.2%
Second compound 0.1 µM, first compound 0.00999 µM
  viability, T/C: 85.4%
[3]
  viability, T/C: 73.2%
Second compound 0.1 µM, first compound 0.0999 µM
  viability, T/C: 68.5%
[4]
  viability, T/C: 53.2%
Second compound 0.316 µM, first compound 0.000999 µM
  viability, T/C: 103%
Second compound 0.316 µM, first compound 0.00316 µM
  viability, T/C: 94%
Second compound 0.316 µM, first compound 0.00999 µM
  viability, T/C: 84%
[5]
  viability, T/C: 75%
Second compound 0.316 µM, first compound 0.0999 µM
  viability, T/C: 64.2%
[6]
  viability, T/C: 49.6%
Second compound 1 µM, first compound 0.000999 µM
  viability, T/C: 99.2%
Second compound 1 µM, first compound 0.00316 µM
  viability, T/C: 89.3%
Second compound 1 µM, first compound 0.00999 µM
  viability, T/C: 82.1%
[7]
  viability, T/C: 76.1%
Second compound 1 µM, first compound 0.0999 µM
  viability, T/C: 66.8%
[8]
  viability, T/C: 51%
Second compound 3.16 µM, first compound 0.000999 µM
  viability, T/C: 94.2%
Second compound 3.16 µM, first compound 0.00316 µM
  viability, T/C: 97.8%
Second compound 3.16 µM, first compound 0.00999 µM
  viability, T/C: 85.7%
[9]
  viability, T/C: 76.5%
Second compound 3.16 µM, first compound 0.0999 µM
  viability, T/C: 64.2%
[10]
  viability, T/C: 46.2%
Second compound 10 µM, first compound 0.000999 µM
  viability, T/C: 90.2%
Second compound 10 µM, first compound 0.00316 µM
  viability, T/C: 88%
Second compound 10 µM, first compound 0.00999 µM
  viability, T/C: 71.9%
[11]
  viability, T/C: 69.2%
Second compound 10 µM, first compound 0.0999 µM
  viability, T/C: 60.7%
[12]
  viability, T/C: 46.3%
